We go through 40 molecules from patent US6548494B1, “Tricyclic inhibitors of poly(ADP-ribose) polymerases” (Agouron Pharmaceuticals, Inc., priority 1999, dated 2003).

Values joined by “and” are separate entries in the source; they are usually repeats but may differ in a detail not shown here. Equal entries are not always repeated. Structures can show the parent of a compound that is named as a salt.

In the assay the target is purified PARP protein (Homo sapiens, UniProt P09874). In words: PARP enzyme inhibition assay. It is filed as biochemical. To be noted: 20 nM purified PARP (5 nM for tight-binding inhibitors), 500 μM NAD+, 25° C.; several values in one cell = repeat determinations; read-out: Inhibition Constant Ki.
Chain of purified PARP protein (P09874 whole entry): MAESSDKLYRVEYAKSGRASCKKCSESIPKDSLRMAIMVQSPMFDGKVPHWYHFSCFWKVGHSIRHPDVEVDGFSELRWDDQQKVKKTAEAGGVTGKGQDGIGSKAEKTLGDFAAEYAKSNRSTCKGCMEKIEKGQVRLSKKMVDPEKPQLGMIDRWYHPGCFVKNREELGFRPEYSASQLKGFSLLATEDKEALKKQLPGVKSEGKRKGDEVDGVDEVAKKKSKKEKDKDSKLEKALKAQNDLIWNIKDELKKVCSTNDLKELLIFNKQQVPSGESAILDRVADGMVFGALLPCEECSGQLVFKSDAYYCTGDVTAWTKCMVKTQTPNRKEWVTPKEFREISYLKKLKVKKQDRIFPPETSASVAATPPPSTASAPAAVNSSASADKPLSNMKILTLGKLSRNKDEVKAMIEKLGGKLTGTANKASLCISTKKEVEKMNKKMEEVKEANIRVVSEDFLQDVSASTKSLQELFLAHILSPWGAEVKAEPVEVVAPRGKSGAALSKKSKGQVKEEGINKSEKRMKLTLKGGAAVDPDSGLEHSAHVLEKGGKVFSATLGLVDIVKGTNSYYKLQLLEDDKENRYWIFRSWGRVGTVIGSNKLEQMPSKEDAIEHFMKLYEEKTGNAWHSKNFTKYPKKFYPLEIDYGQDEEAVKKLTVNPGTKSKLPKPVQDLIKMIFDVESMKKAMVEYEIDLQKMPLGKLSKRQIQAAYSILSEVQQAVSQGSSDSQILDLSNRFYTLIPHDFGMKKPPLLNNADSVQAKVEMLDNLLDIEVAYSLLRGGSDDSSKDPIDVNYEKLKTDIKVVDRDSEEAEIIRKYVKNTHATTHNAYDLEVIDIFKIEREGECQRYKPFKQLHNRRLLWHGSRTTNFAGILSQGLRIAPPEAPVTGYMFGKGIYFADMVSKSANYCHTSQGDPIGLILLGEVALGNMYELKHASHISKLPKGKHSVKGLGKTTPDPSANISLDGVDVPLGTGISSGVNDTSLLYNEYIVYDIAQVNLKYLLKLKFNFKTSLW
What is called Ki is the equilibrium dissociation constant of an inhibitor or competing ligand from its target. With `COc1ccc(C2CNC(=O)c3cccc4[nH]c(=O)n2c34)cc1` (racemic) [Example 53, (RS)-(±)-9-(4-Methoxy-phenyl)-8,9-dihydro-2H,7H-2,7,9a-triaza-benzo[cd]azulene-1,6-dione], the Ki is 1800 nM.

On to `COc1ccc(C2CNC(=O)c3cccc4nc(-c5ccc(Cl)cc5)n2c34)cc1` (racemic) [Example 54, (RS)-(±)-1-(4-Chloro-phenyl)-9-(4-methoxy-phenyl)-8,9-dihydro-7H-2,7,9a-triaza-benzo[cd]azulen-6-one], for which the Ki is 600 nM.

As to `O=C1NCCn2c(-c3ccco3)nc3cccc1c32` [Example 20, 1-Furan-2-yl-8,9-dihydro-7H-2,7,9a-triaza-benzo[cd]azulen-6-one], the Ki was 11.9 nM.

Regarding `O=C1NCCn2c(Cc3ccccc3)nc3cccc1c32` [Example 21, 1-Benzyl-8,9-dihydro-7H-2,7,9a-triaza-benzo[cd]azulen-6-one], the Ki is 13.7 nM and 13 nM.

Regarding `O=C1NCCn2c(C3CCCCC3)nc3cccc1c32` [Example 24, 1-Cyclohexyl-8,9-dihydro-7H-2,7,9a-triaza-benzo[cd]azulen-6-one], the Ki came to 29 nM.

In the case of `O=C1NCCn2c(S)nc3cccc1c32` [Example 28, 1-Mercapto-8,9-dihydro-7H-2,7,9a-triaza-benzo[cd]azulen-6-one], the Ki was found to be 10 nM.

As for `O=C1NCCn2c(-c3ccccc3)cc3cccc1c32` [Example 33, 6-Phenyl-3,4-dihydro-2H-[1,4]diazepino[6,7,1-hi]indol-1-one], the Ki was found to be 14.3 nM.

`O=Cc1c(-c2ccc(Cl)cc2)n2c3c(cccc13)C(=O)NCC2` [Example 38, 6-(4-Chloro-phenyl)-1-oxo-1,2,3,4-tetrahydro-[1,4]diazepino[6,7,1-hi]indole-7-carboxaldehyde]: the Ki is 43 nM.

For `O=C1NCCN2CCc3cccc1c32` [Example 41, 3,4,6,7-Tetrahydro-2H-[1,4]diazepino[6,7,1-hi]indol-1-one, reference compound], the Ki was 54 nM and 60 nM.

Regarding `COC(=O)c1cn2c3c(cccc13)C(=O)NCC2` [Example 44], the Ki was found to be 900 nM.

On to `O=Cc1cn2c3c(cccc13)C(=O)NCC2` [Example 45, 1-Oxo-1,2,3,4-tetrahydro-[1,4]diazepino[6,7,1-hi]indole-7-carbaldehyde], for which the Ki was 167 nM and 185 nM.

As for `Cc1cn2c3c(cccc13)C(=O)NCC2` [Example 49, 7-Methyl-3,4-dihydro-2H-[1,4]diazepino[6,7,1-hi]indol-1-one], the Ki is 122 nM.

On to `Cc1c(-c2cccc(C(F)(F)F)c2)n2c3c(cccc13)C(=O)NCC2` [Example 52, 6-(3-Trifluoromethyl-phenyl)-7-methyl-3,4-dihydro-2H-[1,4]diazepino[6,7,1-hi]indol-1-one], for which the Ki was found to be 79 nM.

In the case of `O=C1NCCn2c(-c3ccc(CO)cc3)nc3cccc1c32` [Example 58a, 1-(4-hydroxymethyl-phenyl)-8,9-dihydro-7H-2,7,9a-triaza-benzo[cd]azulen-6-one], the Ki is 4.2 nM.

As to `O=C1NCCn2c(-c3ccc(-c4ccc(Cl)cc4)o3)nc3cccc1c32` [Example 96, 1-[5-(4-Chlorophenyl)-furan-2-yl]-8,9-dihydro-7H-2,7,9a-triaza-benzo[cd]azulen-6-one], the Ki is 10 nM.

In the case of `CN(C)CCCOc1ccc(-c2nc3cccc4c3n2CCNC4=O)cc1` [Example 121, 1-[4-(3-Dimethylamino-propoxy)-phenyl]-8,9-dihydro-7H-2,7,9a-triaza-benzo[cd]azulen-6-one], the Ki was determined as 4 nM.

`C[N+](C)([O-])Cc1ccc(-c2nc3cccc4c3n2CCNC4=O)cc1` [Example 131]: the Ki was 22 nM.

As for `CC(C)(C)OC(=O)N1CCCC(c2ccc(-c3nc4cccc5c4n3CCNC5=O)cc2)C1` (stereo not shown) [Example 143, 3-[4-(6-oxo-6,7,8,9-Tetrahydro-2,7,9a-triaza-benzo[cd]azulen-1-yl)-phenyl]-piperidine-1-carboxylic Acid t-Butyl Ester], the Ki stood at 22 nM.

Turning to `Nc1nc2cccc3c2n1CCNC3=O` [Example 146, 1-Amino-8,9-dihydro-7H-2,7,9a-triaza-benzo[cd]azulen-6-one Hydrochloride], the Ki was 35 nM.

`O=C1NCCn2c(-c3ccc(C4CCCCN4CC4CC4)cc3)nc3cccc1c32` (stereo not shown) [Example 150, 1-[4-(1-Cyclopropylmethyl-piperidin-2-yl)-phenyl]-8,9-dihydro-7H-2,7,9a-triaza-benzo[cd]azulen-6-one]: the inhibition constant (Ki) is 5 nM.

`N/N=C(\N)c1c(-c2ccc(F)cc2)n2c3c(cccc13)C(=O)NCC2` [Example 156, 7-Formyl-6-(4-fluorophenyl)-1-oxo-3,4-dihydro-[1,4]diazepino[6,7,1-hi]indole Amidrazone Hydrochloride]: the Ki was 57 nM.

Take `O=C1NCCn2c(-c3ccc(CN4CCC(O)C4)cc3)nc3cc(F)cc1c32` (stereo not shown) [Example 172, 4-Fluoro-1-[4-(3-hydroxy-pyrrolidin-1-ylmethyl)-phenyl]-8,9-dihydro-7H-2,7,9a-triaza-benzo[cd]azulen-6-one]: the Ki was 4.6 nM.

Consider `O=C1NCCn2c(-c3ccc(CN4CCC[C@@H]4CO)cc3)nc3cccc1c32` [Example 173, 1-[4-((2R)-2-Hydroxymethyl-pyrrolidin-1-ylmethyl)-phenyl]-8,9-dihydro-7H-2,7,9a-triaza-benzo[cd]azulen-6-one], for which the Ki is 6.3 nM.

Consider `O=C1NCCn2c(-c3ccc(CN4CCCC(CO)C4)cc3)nc3cccc1c32` (stereo not shown) [Example 175, 1-[4-(3-Hydroxymethyl-piperidin-1-ylmethyl)-phenyl]-8,9-dihydro-7H-2,7,9a-triaza-benzo[cd]azulen-6-one], for which the Ki was 6.6 nM.

For `CN(Cc1ccc(-c2nc3cccc4c3n2CCNC4=O)cc1)CC(O)CO` (stereo not shown) [Example 176, 1-(4-{[(2,3-Dihydroxy-propyl)-methyl-amino]-methyl}-phenyl)-8,9-dihydro-7H-2,7,9a-triaza-benzo[cd]azulen-6-one], the Ki turned out to be 9 nM.

Regarding `C=CCN1CCN(Cc2ccc(-c3nc4cccc5c4n3CCNC5=O)cc2)CC1` [Example 178, 1-[4-(4-Allyl-piperazin-1-ylmethyl)-phenyl]-2,7,8,9-tetrahydro-2,7,9a-triaza-benzo[cd]azulen-6-one], the Ki is 12 nM.

With `CN(CCc1ccccc1)Cc1ccc(-c2nc3cccc4c3n2CCNC4=O)cc1` [Example 179, 1-{4-[(Methyl-phenethyl-amino)-methyl]-phenyl}-2,7,8,9-tetrahydro-2,7,9a-triaza-benzo[cd]azulen-6-one], the Ki turned out to be 5.6 nM.

As for `CCCCN(CCO)Cc1ccc(-c2nc3cccc4c3n2CCNC4=O)cc1` [Example 180, 1-(4-{[Butyl-(2-hydroxy-ethyl)-amino]-methyl}-phenyl)-2,7,8,9-tetrahydro-2,7,9a-triaza-benzo[cd]azulen-6-one], the Ki was 7.4 nM.

Take `O=C1NCCn2c(-c3ccc(CN4CCC[C@H]4CO)cc3)nc3cccc1c32` [Example 181, 1-[4-((2S)-2-Hydroxymethyl-pyrrolidin-1-ylmethyl)-phenyl]-2,7,8,9-tetrahydro-2,7,9a-triaza-benzo[cd]azulen-6-one]: the Ki turned out to be 3.9 nM.

Turning to `O=C1NCCn2c(-c3ccc(CN4CC=CCC4)cc3)nc3cccc1c32` [Example 182, 1-[4-(3,6-Dihydro-2H-pyridin-1-ylmethyl)-phenyl]-2,7,8,9-tetrahydro-2,7,9a-triaza-benzo[cd]azulen-6-one], the Ki was 4.7 nM.

`O=C1NCCn2c(-c3ccc(CNCCc4ccccc4)cc3)nc3cccc1c32` [Example 183, 1-[4-(Phenethylamino-methyl)-phenyl]-2,7,8,9-tetrahydro-2,7a-triaza-benzo[cd]azulen-6-one]: the Ki was found to be 8 nM.

On to `O=C1NCCn2c(-c3ccc(CNCCc4ccc(F)cc4)cc3)nc3cccc1c32` [Example 185, 1-(4-{[2-(4-Fluoro-phenyl)-ethylamino]-methyl}-phenyl)-2,7,8,9-tetrahydro-2,7,9a-triaza-benzo[cd]azulen-6-one], for which the inhibition constant Ki was found to be 5.6 nM.

For the molecule `CC(C)CN(C)Cc1ccc(-c2nc3cccc4c3n2CCNC4=O)cc1` [Example 187, 1-{4-[(Isobutyl-methyl-amino)-methyl]-phenyl}-8,9-dihydro-7H-2,7,9a-triaza-benzo[cd]azulen-6-one], the Ki came out at 7 nM.

Take `O=C1NCCn2c(-c3ccc(CNC4CCC4)cc3)nc3cccc1c32` [Example 188, 1-(4-Cyclobutylaminomethyl-phenyl)-8,9-dihydro-7H-2,7,9a-triaza-benzo[cd]azulen-6-one]: the Ki was 4.8 nM.

As for `O=C1NCCn2c(-c3ccc(CNCc4cccs4)cc3)nc3cccc1c32` [Example 189, 1-(4-{[(Thiophen-2-ylmethyl)-amino]-methyl}-phenyl)-8,9-dihydro-7H-2,7,9a-triaza-benzo[cd]azulen-6-one], the Ki turned out to be 5.1 nM.

Regarding `CCCN(CCC)Cc1ccc(-c2nc3cccc4c3n2CCNC4=O)cc1` [Example 190, 1-(4-Dipropylaminomethyl-phenyl)-8,9-dihydro-7H-2,7,9a-triaza-benzo[cd]azulen-6-one], the Ki stood at 8.1 nM.

With `O=C1NCCn2c(-c3ccc(CNCc4ccc5c(c4)OCO5)cc3)nc3cccc1c32` [Example 191, 1-(4-{[(Benzo[1,3]dioxol-5-ylmethyl)-amino]-methyl}-phenyl)-8,9-dihydro-7H-2,7,9a-triaza-benzo[cd]azulen-6-one], the Ki stood at 4.3 nM.

As to `O=C1NCCn2c(-c3ccc(CNC4CCc5ccccc54)cc3)nc3cccc1c32` (stereo not shown) [Example 192, 1-[4-(Indan-1-ylaminomethyl)-phenyl]-8,9-dihydro-7H-2,7,9a-triaza-benzo[cd]azulen-6-one], the Ki was determined as 4.5 nM.

As for `CCOC(=O)CCN(Cc1ccc(-c2nc3cccc4c3n2CCNC4=O)cc1)Cc1ccco1` [Example 193, 3-{[4-(6-oxo-6,7,8,9-Tetrahydro-2,7,9a-triaza-benzo[cd]azulen-1-yl)-benzyl]-furan-2-ylmethyl-amino}-propionic Acid Ethyl Ester], the Ki was determined as 11 nM.

For `CN1CCCC1CCNCc1ccc(-c2nc3cccc4c3n2CCNC4=O)cc1` (stereo not shown) [Example 194, 1-(4-{[2-(1-Methyl-pyrrolidin-2-yl)-ethylamino]-methyl}-phenyl)-8,9-dihydro-7H-2,7,9a-triaza-benzo[cd]azulen-6-one], the Ki was 6.2 nM.
